Patent US7186534B1 (The Trustees of Columbia University in the City of New York, priority 1997, dated 2007)
Entries after “also recorded” stand apart in the source; their conditions may differ. Read-outs that look alike come from different tables or passages of the source.

Experiments:
Format in all cases: biochemical
[1] = target: T1, mouse 9cRDH (m9cRDH) (Mus musculus, UniProt O55240); test: Retinaldehyde isomer reduction by recombinant mouse 9cRDH; conditions: for m9cRDH specific activity, retinaldehyde reduction: substrate 10 μM, 15 min, 150–180 μg protein/assay, NADH, pH 5.0
T1 sequence (O55240 1-318): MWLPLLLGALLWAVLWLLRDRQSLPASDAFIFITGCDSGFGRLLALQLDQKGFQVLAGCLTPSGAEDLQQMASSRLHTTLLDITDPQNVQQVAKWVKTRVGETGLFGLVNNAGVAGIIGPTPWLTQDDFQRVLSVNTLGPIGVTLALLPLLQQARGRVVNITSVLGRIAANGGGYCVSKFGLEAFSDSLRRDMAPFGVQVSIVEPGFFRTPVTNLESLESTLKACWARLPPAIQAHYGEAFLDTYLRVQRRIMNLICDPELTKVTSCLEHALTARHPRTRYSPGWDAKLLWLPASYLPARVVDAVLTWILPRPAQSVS
Description: (§1) Enzymatic Assays. Assays for human and mouse 9cRDH were carried out essentially as were described previously for human 9cRDH (19). For expression of mouse 9cRDH a cDNA clone obtained from a mouse liver cDNA library was employed (see below). Recombinant human or mouse 9cRDH expressed in CHO cells was incubated in an assay mixture containing 10 μM 9-cis-retinol (added in 0.02 mL ethanol) and 2 mM NAD in 10 mM Hepes, pH 8.0, containing 150 mM KCl, 1 mM EDTA, and 50 μg phosphotidyl choline for 15 min at 37° C. (final assay volume of 0.6 ml) with agitation. This assay mixture was used routinely to measure oxidation of 9-cis-retinol to 9-cis-retinaldehyde and in studies assessing oxidation of 11-cis-, 13-cis- and all-trans-retinol to their corresponding aldehydes. For some experiments, the ability of human or mouse 9cRDH to catalyze the reduction of 9-cis-, 11-cis-, 13-cis- or all-trans-retinaldehyde was assessed. To assess these reduction reactions, incubations were carried out in 100 mM sodium acetate, pH 5.0, containing 50 μg phosphotidyl choline and 2 mM NADH (or 2 mM NADPH) in a final volume of 0.6 ml for 15 min at 37° C.
(§2) Immediately following incubation of the assay, the assay mixture was denatured with an equal volume of absolute ethanol (0.6 ml), and the retinoids extracted into 2.5 ml of hexane. Following one backwash of the hexane extract with 0.5 ml of deionized water, the hexane was evaporated to dryness under a gentle stream of N2. The extracted retinoids were immediately redissolved in 120 μl of hexane and analyzed by normal phase HPLC as described below.

[2] = target: T2, human 9cRDH (h9cRDH) (Homo sapiens, UniProt Q92781); test: Retinaldehyde isomer reduction by recombinant human 9cRDH; conditions: for h9cRDH specific activity, retinaldehyde reduction: substrate 10 μM, 15 min, 150–180 μg protein/assay, NADH, pH 5.0
T2 sequence (Q92781 1-318): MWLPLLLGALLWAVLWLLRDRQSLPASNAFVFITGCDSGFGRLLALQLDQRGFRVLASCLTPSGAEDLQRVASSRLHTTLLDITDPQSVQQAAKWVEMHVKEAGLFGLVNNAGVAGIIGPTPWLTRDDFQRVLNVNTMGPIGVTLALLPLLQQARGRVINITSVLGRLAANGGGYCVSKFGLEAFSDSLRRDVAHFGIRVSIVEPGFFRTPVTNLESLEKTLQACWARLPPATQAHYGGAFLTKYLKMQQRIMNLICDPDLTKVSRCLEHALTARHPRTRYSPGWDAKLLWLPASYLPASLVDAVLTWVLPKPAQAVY
Description: as §1, §2

[3] = target: T1, mouse 9cRDH (m9cRDH); test: Retinol isomer oxidation by recombinant mouse 9cRDH; conditions: for m9cRDH specific activity, retinol oxidation: substrate 10 μM, 15 min, 150–180 μg protein/assay, NAD+
Description: as §1, §2

[4] = target: T2, human 9cRDH (h9cRDH); test: Retinol isomer oxidation by recombinant human 9cRDH (substrate and cofactor specificity); conditions: for h9cRDH specific activity, retinol oxidation: substrate 10 μM, 15 min, 150–180 μg protein/assay, NAD+
Description: Enzymatic Assay of Retinol Dehydrogenase Activity. Transfected CHO cell pellets were homogenized in PBS at 4° C. using 50 strokes of a Dounce homogenizer For assay of retinol dehydrogenase activity, aliquots of unfractionated CHO cell homogenate were incubated with 10, μM retinol (either as the all-trans, 13-cis, or 9-cis isomer added in ethanol) and either 2 mM NAD+ or 2 mM NADP+ in 10 mM Hepes containing 150 mM KCl, 1 mM EDTA, and 10, μg/ml phosphotidyl choline at pH 8.0 and 37° C. for prechosen time intervals. The final assay volume was 0.6 ml. Assays were routinely carried out in amber glass tubes that had been flushed with N2 to shield the retinoids from both light and O2 All subsequent extractions and procedures were carried out in a manner that minimized exposure of the retinoids to light and O2.
Immediately following incubation, the assay mixture was denatured with an equal volume of absolute ethanol (0.6 ml), and the retinoids were extracted into 3 ml of HPLC grade hexane. Following one backwash of the hexane extract with 0.5 ml of deionized water, the hexane was evaporated to dryness under a gentle stream of N2, and the extracted retinoids were immediately redissolved in 120 μl of hexane and analyzed by normal phase HPLC (see below).
HPLC Procedures. Stereoisomers of both retinol and retinaldehyde were separated on a 4.6×250-mm Vydac 101HS54 silica column using hexane:n-propanol:1-octanol (98.9:1.0:0.1 v/v) flowing at 1.5 ml/min as the mobile phase. The running column was preceded by a silica guard column. Retinols and retinaldehydes were detected by UV absorbance at 350 nm. Retention times for all-trans-, 13-cis-, and 9-cis-retinols were established using purified compounds obtained as described above. Retention times for all-trans-, 13-cis-, and 9-cis-retinaldehyde were determined using commercial standards (Sigma). Quantities of each retinol and retinaldehyde isomer present in extracts were determined by comparisons of the integrated areas under the HPLC peaks with a standard curve constructed relating integrated peak area with known masses of each retinoid isomer. The concentrations of each retinoid isomer were determined by UV-visible spectrophotometry using published extinction coefficients for each retinol and retinaldehyde isomer (26).
as §1, §2

[5] = target: T3, human 9-cis retinol dehydrogenase (9cRDH) (Homo sapiens, UniProt Q92781); test: Inhibition of recombinant human 9cRDH activity (9-cis-retinol oxidation, CHO cell homogenate, HPLC); conditions: for inhibition of human 9cRDH activity (in words): 10 μM 9-cis-retinol; for effect on 9cRDH activity expressed in CHO cells (first series): NaCl up to 1 M, β-mercaptoethanol, dithiothreitol 1 mM, Triton X-100, sodium cholate 1% (w/v); for inhibition of human 9cRDH activity by hydroxysteroids: 10 μM steroid, equimolar to substrate, forward (retinol oxidation) or reverse (retinaldehyde reduction) direction
T3 sequence (Q92781 1-318): T2 sequence (Q92781 1-318)

[6] = target: T4, mouse 9cRDH (Mus musculus, UniProt O55240); test: Inhibition of recombinant mouse 9cRDH activity (9-cis-retinol oxidation, CHO cell homogenate, HPLC); conditions: for inhibition of mouse 9cRDH activity (in words): 10 μM 9-cis-retinol; for inhibition of mouse 9cRDH activity by hydroxysteroids: 10 μM steroid, equimolar to substrate, forward (retinol oxidation) or reverse (retinaldehyde reduction) direction
T4 sequence (O55240 1-318): T1 sequence (O55240 1-318)

[7] = equimolar concentrations, any substrate
[8] = […] 15 μM, carbenoxolone 0.5 mM, all others 1 mM
[9] = phenylarsine oxide 15 μM, carbenoxolone 0.5 mM, all others 1 mM

## CC1=C(/C=C/C(C)=C\C=C\C(C)=C\C=O)C(C)(C)CCC1 [9-cis-retinaldehyde]
[1]
  m9cRDH specific activity, retinaldehyde reduction: 420 pmol/min/mg protein
[2]
  h9cRDH specific activity, retinaldehyde reduction: 268 pmol/min/mg protein

## CC1=C(/C=C/C(C)=C\C=C\C(C)=C\CO)C(C)(C)CCC1 [9-cis-retinol]
[3]
  rate of oxidation by mouse enzyme as multiple of the rate of 11-cis-retinol oxidation: 2 times
  m9cRDH specific activity, retinol oxidation: 328 pmol/min/mg protein
[4]; 2 mM NAD+
  oxidation to the corresponding retinaldehyde by transfected CHO cell homogenate (in words): avidly oxidized
[4]; in assay concentration 10 μM
  share of the added retinol oxidized to retinaldehyde by CHO cell homogenate: Over 60%
[4]
  h9cRDH specific activity, retinol oxidation: 367 pmol/min/mg protein

## CC1=C(/C=C/C(C)=C/C=C\C(C)=C\C=O)C(C)(C)CCC1 [11-cis-retinaldehyde]
[1]
  m9cRDH specific activity, retinaldehyde reduction: 506 pmol/min/mg protein
[2]
  h9cRDH specific activity, retinaldehyde reduction: 1220 pmol/min/mg protein

## CC1=C(/C=C/C(C)=C/C=C\C(C)=C\CO)C(C)(C)CCC1 [11-cis-retinol]
[3]
  m9cRDH specific activity, retinol oxidation: 152 pmol/min/mg protein
[4]
  h9cRDH specific activity, retinol oxidation: 442 pmol/min/mg protein

## CC1=C(/C=C/C(C)=C/C=C/C(C)=C\C=O)C(C)(C)CCC1 [13-cis-retinaldehyde]
[1]
  m9cRDH specific activity, retinaldehyde reduction: 748 pmol/min/mg protein
[2]
  h9cRDH specific activity, retinaldehyde reduction: 744 pmol/min/mg protein

## CC1=C(/C=C/C(C)=C/C=C/C(C)=C\CO)C(C)(C)CCC1 [13-cis-retinol]
[3]
  m9cRDH specific activity, retinol oxidation: 2.0 pmol/min/mg protein
[4]; first series, 2 mM NAD+, 10 μM retinol
  rate of oxidation relative to that observed for 9-cis-retinol: 10%
[4]
  h9cRDH specific activity, retinol oxidation: 0.3 pmol/min/mg protein

## NC(=O)c1ccc[n+]([C@@H]2O[C@H](COP(=O)([O-])OP(=O)(O)OC[C@H]3O[C@@H](n4cnc5c(N)ncnc54)[C@H](OP(=O)(O)O)[C@@H]3O)[C@@H](O)[C@H]2O)c1 [NADP+]
[3]; [7]
  reaction rate supported relative to NAD+, mouse 9cRDH retinol oxidation: ≤ 10%
[4]; both at 2 mM
  cofactor activity relative to NAD+ for 9-cis-retinol oxidation: 8%
[4]; [7]
  reaction rate supported relative to NAD+, human 9cRDH retinol oxidation: ≤ 10%

## CC1=C(/C=C/C(C)=C/C=C/C(C)=C/CO)C(C)(C)CCC1 [all-trans Retinol, All-trans-retinol]
[5]; listed as all-trans retinol
  inhibition of human 9cRDH activity (in words): did not inhibit
[5]; listed as all-trans-retinol
  inhibition of human 9cRDH activity (in words): only very weak inhibitors; also recorded: did not inhibit
[3]
  m9cRDH specific activity, retinol oxidation: 0.6 pmol/min/mg protein
[4]; 2 mM NAD+
  oxidation to the corresponding retinaldehyde by transfected CHO cell homogenate (in words): unable to catalyze the oxidation
[4]
  h9cRDH specific activity, retinol oxidation: 0.5 pmol/min/mg protein
[6]
  inhibition of mouse 9cRDH activity (in words): only very weak inhibitors

## CC1=C(/C=C/C(C)=C/C=C/C(C)=C/C=O)C(C)(C)CCC1 [all-trans-retinaldehyde]
[1]
  m9cRDH specific activity, retinaldehyde reduction: 1.3 pmol/min/mg protein
[2]
  h9cRDH specific activity, retinaldehyde reduction: 1.1 pmol/min/mg protein

## CCN(CC)C(=S)SSC(=S)N(CC)CC [disulfuran]
[5]; [8]
  influence of SCAD/alcohol dehydrogenase inhibiting reagents on recombinant human 9cRDH activity: none of these compounds influenced
[6]; [8]
  influence of SCAD/alcohol dehydrogenase inhibiting reagents on recombinant mouse 9cRDH activity: none of these compounds influenced

## CCO [ethanol]
[5]
  inhibition of human 9cRDH activity (in words): not inhibited
  effect on 9cRDH activity expressed in CHO cells (first series): not inhibited
[6]
  inhibition of mouse 9cRDH activity (in words): not inhibited

## C[C@]12CCC(=O)C=C1CC[C@@H]1[C@@H]2[C@@H](O)C[C@@]2(C)[C@H]1CC[C@]2(O)C(=O)CO [hydrocortisone]
[5]
  inhibition of human 9cRDH activity by hydroxysteroids: none of these hydroxysteroids inhibited
[6]
  inhibition of mouse 9cRDH activity by hydroxysteroids: none of these hydroxysteroids inhibited

## c1cnc2c(c1)ccc1cccnc12 [o-phenanthroline, 1,10-phenanthroline]
[5]
  effect on 9cRDH activity expressed in CHO cells (first series): not inhibited
[5]; [9]
  influence of SCAD/alcohol dehydrogenase inhibiting reagents on recombinant human 9cRDH activity: none of these compounds influenced
[6]; [9]
  influence of SCAD/alcohol dehydrogenase inhibiting reagents on recombinant mouse 9cRDH activity: none of these compounds influenced

## C[C@]12C=CC(=O)C=C1CC[C@@H]1[C@@H]2C(=O)C[C@@]2(C)[C@H]1CC[C@]2(O)C(=O)CO [prednisone]
[5]
  inhibition of human 9cRDH activity by hydroxysteroids: none of these hydroxysteroids inhibited
[6]
  inhibition of mouse 9cRDH activity by hydroxysteroids: none of these hydroxysteroids inhibited

## CC(=O)[C@H]1CC[C@H]2[C@@H]3CCC4=CC(=O)CC[C@]4(C)[C@H]3CC[C@]12C [progesterone]
[5]
  inhibition of human 9cRDH activity by hydroxysteroids: none of these hydroxysteroids inhibited
[6]
  inhibition of mouse 9cRDH activity by hydroxysteroids: none of these hydroxysteroids inhibited

## CC(=O)[O-].CC(=O)[O-].[Zn+2] [zinc acetate]
[5]
  influence of SCAD/alcohol dehydrogenase inhibiting reagents on recombinant human 9cRDH activity: none of these compounds influenced
[6]
  influence of SCAD/alcohol dehydrogenase inhibiting reagents on recombinant mouse 9cRDH activity: none of these compounds influenced

## C[C@]12CC[C@@H]3c4ccc(O)cc4CC[C@H]3[C@@H]1CC[C@@H]2O [β-estradiol]
[5]
  inhibition of human 9cRDH activity by hydroxysteroids: none of these hydroxysteroids inhibited
[6]
  inhibition of mouse 9cRDH activity by hydroxysteroids: none of these hydroxysteroids inhibited

## NADPH
[1]; [7]
  reaction rate supported relative to NADH, mouse 9cRDH retinaldehyde reduction: ≤ 10%
[2]; [7]
  reaction rate supported relative to NADH, human 9cRDH retinaldehyde reduction: ≤ 10%
